Data on 1 compound can be found in US9440980B2, “Remedy for diabetes” (EA Pharma Co., Ltd., priority 2007, dated 2016).

This assay has as its system Akt phosphorylation in human liver-derived HLF cell. Put plainly: Akt phosphorylation activity in Gβ expression inhibited HLF cell (siRNA, Western blot). The class given is cell-based. Particulars: FIG. 16. Here is the method: The effect of Gβ expression inhibition by a siRNA method against the Akt phosphorylation activity of Compound 6 in a human liver-derived HLF cell was evaluated as follows.
The HLF cells were seeded in a Dulbecco MEM medium containing 10% FCS in a 24-well dish (IWAKI, Product No. 3820-024) at a ratio of 3.75×10^4 cells/well. The cells were cultured at 37° C. for 6 hours in the presence of 5% CO2 to achieve sufficient attachment, a siRNA was transfected into the cells at the concentration of 100 nM using Dharmafect 2 (Dharmacon, Product No. T-2002-02), and the resultant cells were cultured at 37° C. for 48 hours in the presence of 5% CO2. […] Each solution was subjected to an SDS polyacrylamide electrophoresis, and the phosphorylated Akt amount, the Gβ1 amount, the Gβ2 amount, and the Gβ4 amount were measured by a Western blot method using an anti-phosphorylated Akt antibody (Cell Signaling Technologies, Product No. 9271), an anti-Gβ1 antibody (SantaCruz, Product No. sc-379), an anti-Gβ2 antibody (SantaCruz, Product No. sc-380), and an anti-Gβ4 antibody (SantaCruz, Product No. sc-382). […]
Background: A western blot detects proteins with antibodies after separation by electrophoresis.

Take `O=C1NCC2=C1[C@@H](c1ccccc1)N(C(=O)CO)[C@@H]1CCCC[C@H]1N2` [Compound 6]: the “phosphorylated Akt amount” value runs as follows: (HLF cells with Gβ siRNA (Gβ1, Gβ2, Gβ4)) “not detected at any Compound 6 concentration”; (HLF cells with negative control siRNA) “increased depending on the Compound 6 concentration”.
